According to US10947197B2, “Synthesis of the radiolabeled prostate-specific membrane antigen (PSMA) inhibitor [18F]DCFPyL” (The Johns Hopkins University, priority 2016, dated 2021):

Columns and labels:
Type in all cases: physicochemical
[1] = Retesting at radiotracer expiry: radiochemical purity (HPLC) after storage under ambient conditions; conditions: for Expiry radiochemical purity, %: ambient storage
Procedure: Using the same HPLC system described for the radiochemical identity test, an appropriate volume (50 μL) of [^18F]DCFPyL was injected at a quantity injected that avoids uncorrected dead-time loss (for main peak) in the radioactive detection system. The percent radiochemical purity of [^18F]DCFPyL was determined by dividing the radioactivity associated with the [^18F]DCFPyL peak by total activity assayed in the chromatogram multiplied by 100. The product met this acceptance specification if the radiochemical purity was greater than or equal to 95%. A sample QC chromatogram is shown in FIG. 7 (DCFPyL−RT=7.6 min., k′=8.7).

[2] = Retesting at radiotracer expiry: visual inspection (appearance); conditions: n = 3, specification: clear colorless solution, no visible particulate matter
Excerpt: Using remote handling equipment and appropriate radiation shielding (leaded glass), the vial containing the [^18F]DCFPyL product was visually inspected under bright light. The product met this acceptance specification if it was clear and colorless with no evidence of foreign matter.

[3] = Retesting at radiotracer expiry: pH by indicator paper; conditions: specification 4.5-8.5; for pH, expiry: average n = 3, 360 min after EOS
Excerpt: A drop of the [^18F]DCFPyL final product matrix was applied to pH indicator paper (ColorPhast-Indicator strip—pH 2-9; sensitivity of 0.3 to 0.5 units, EMD Chemicals Inc., Gibbstown, N.J.). The strip color was matched to an indicator chart. The product met this acceptance specification if the pH was between 4.5 and 8.5.

[4] = large-scale RFM batch, 4.5 GBq/mL (122 mCi/mL), added sodium ascorbate, 99.7% at EOS
[5] = RFM synthesis (head prints REM)

Expiry radiochemical purity, % ([1]; ELIXYS synthesis, average n = 3, expiry 360 min after EOS): 100% | Expiry radiochemical purity, % ([1]; RFM synthesis (head prints REM), average n = 3, expiry 360 min after EOS): 100% | QC acceptance specifications at the 6-hour expiry ([1]; highest product yield validation run, 1.6 GBq/mL (44 mCi/mL)): meet all QC acceptance specifications | radiochemical purity 3 hours post EOS [1, 4]: 98.8% | radiochemical purity 4 hours post EOS [1, 4]: 98.5% | radiochemical purity 6 hours post EOS [1, 4]: 98.2% | radiochemical purity at the 6-hour expiry ([1]; large-scale RFM batch, 5.7 GBq/mL (153 mCi/mL), no sodium ascorbate, 97.6% at EOS): 51.1% | Expiry radiochemical purity, % ([1]; original first-in-human synthesis, average n = 3, expiry 240 min after EOS): 100% | Appearance, 360 min after EOS ([2]; ELIXYS synthesis): Conforms | Appearance, 360 min after EOS [2, 5]: Conforms | Appearance, 240 min after EOS ([2]; original synthesis): Conforms | pH, expiry ([3]; ELIXYS synthesis): 5 | pH, expiry [3, 5]: 5 | pH, initial ([3]; original synthesis, average n = 3, second row headed pH, initial, beside pH, expiry): 5
Structure (SMILES): O=C(O)CC[C@H](NC(=O)N[C@@H](CCCCNC(=O)c1ccc([18F])nc1)C(=O)O)C(=O)O [[^18F]DCFPyL, 2-(3-{1-carboxy-5-[(6-[^18F]fluoro-pyridine-3-carbonyl)-amino]-pentyl}-ureido)-pentanedioic acid]
